Measurements taken from ChEMBL document CHEMBL6078630, “Design, synthesis, and bioactivity investigation of novel cyclic lipopeptide antibiotics targeting top-priority multidrug-resistant gram-negative bacteria” (Eur J Med Chem, 2024).
Values after ≈ are worked out from the molar mass of the structure shown. Bridge positions count the residues as written; N and C are the ends. Square brackets hold non-standard residues; d marks the D form. Peptide text beside a SMILES is read from it. * marks the point of attachment. Heptanoyl(6-Me) = CC(C)CCCCC(=O)*; dOrn = NCCC[C@@H](N)C(=O)O; X1 = CC[C@H](C)CCCCC(=O)*; dDab = NCC[C@@H](N)C(=O)O; Orn = NCCC[C@H](N)C(=O)O; Dab = NCC[C@H](N)C(=O)O; Dap = NC[C@H](N)C(=O)O

Assays:
[1] = Renal cytotoxicity against HK-2 cells incubated for 72 hrs by CCK8 assay; type: toxicity, cell-based; conditions: human
[2] = tested on: Acinetobacter baumannii; assay: Antibacterial activity against carbapenem-sensitive Acinetobacter baumannii clinical isolate 19-1 assessed as inhibition of bacterial growth incubated for 16 to 20 hrs by CLSI protocol based broth microdilution method; type: functional; conditions: time 16-20 hrs
[3] = tested on: Escherichia coli; assay: Antibacterial activity against carbapenem-resistant Escherichia coli ATCC BAA-2340 assessed as inhibition of bacterial growth incubated for 16 to 20 hrs by CLSI protocol based broth microdilution method; type: functional; conditions: time 16-20 hrs
[4] = tested on: Escherichia coli; assay: Antibacterial activity against Escherichia coli ATCC BAA-2523 assessed as inhibition of bacterial growth incubated for 16 to 20 hrs by CLSI protocol based broth microdilution method; type: functional; conditions: time 16-20 hrs
[5] = tested on: Klebsiella pneumoniae; assay: Antibacterial activity against carbapenem-resistant Klebsiella pneumoniae clinical isolate KPN+19-15 assessed as inhibition of bacterial growth incubated for 16 to 20 hrs by CLSI protocol based broth microdilution method; type: functional; conditions: time 16-20 hrs
[6] = tested on: Klebsiella pneumoniae; assay: Antibacterial activity against carbapenem-resistant Klebsiella pneumoniae ATCC BAA-1705 assessed as inhibition of bacterial growth incubated for 16 to 20 hrs by CLSI protocol based broth microdilution method; type: functional; conditions: time 16-20 hrs
[7] = tested on: Pseudomonas aeruginosa; assay: Antibacterial activity against carbapenem-resistant Pseudomonas aeruginosa clinical isolate 19-3 assessed as inhibition of bacterial growth incubated for 16 to 20 hrs by CLSI protocol based broth microdilution method; type: functional; conditions: time 16-20 hrs
[8] = tested on: Pseudomonas aeruginosa; assay: Antibacterial activity against Pseudomonas aeruginosa ATCC 27853 assessed as inhibition of bacterial growth incubated for 16 to 20 hrs by CLSI protocol based broth microdilution method; type: functional; conditions: time 16-20 hrs
[9] = tested on: Acinetobacter baumannii; assay: Antibacterial activity against Acinetobacter baumannii NCTC 13304 (OXA-27) assessed as inhibition of bacterial growth incubated for 16 to 20 hrs by CLSI protocol based broth microdilution method; type: functional; conditions: time 16-20 hrs

| SMILES | IC50 at 72 h [1] [µg/mL] | MIC [2] [µg/mL] | MIC [3] [µg/mL] | MIC [4] [µg/mL] | MIC [5] [µg/mL] | MIC [6] [µg/mL] | MIC [7] [µg/mL] | MIC [8] [µg/mL] | MIC [9] [µg/mL] |
| --- | --- | --- | --- | --- | --- | --- | --- | --- | --- |
| CC[C@H](C)CCCCC(=O)N[C@@H](CCN)C(=O)N[C@H](C(=O)N[C@H](CCN)C(=O)N[C@H]1CCNC(=O)[C@H]([C@@H](C)O)NC(=O)[C@H](CCN)NC(=O)[C@H](CCN)NC(=O)[C@H]([C@@H](C)O)NC(=O)[C@@H](Cc2ccccc2)NC(=O)[C@H](CCN)NC1=O)[C@@H](C)O (X1-[Dab]T[dDab][Dab][Dab][dF]T[Dab][Dab]T; lactam 4-C) | 371 (≈ 311 µM) | ≤ 0.03 | ≤ 0.03 | ≤ 0.03 | ≤ 0.03 | ≤ 0.03 | 1 (≈ 0.839 µM) | 1 (≈ 0.839 µM) | ≤ 0.03 |
| CC(C)CCCCC(=O)N[C@@H](CCN)C(=O)N[C@H](C(=O)N[C@@H](CCCN)C(=O)N[C@H]1CCNC(=O)[C@H]([C@@H](C)O)NC(=O)[C@H](CCN)NC(=O)[C@H](CCN)NC(=O)[C@H]([C@@H](C)O)NC(=O)[C@@H](Cc2ccccc2)NC(=O)[C@H](CCN)NC1=O)[C@@H](C)O ({Heptanoyl(6-Me)}-[Dab]T[Orn][Dab][Dab][dF]T[Dab][Dab]T; lactam 4-C) | > 500 | 0.125 (≈ 0.105 µM) | ≤ 0.03 | ≤ 0.03 | ≤ 0.03 | ≤ 0.03 | 0.25 (≈ 0.21 µM) | ≤ 0.03 | 0.06 (≈ 0.0504 µM) |
| CC(C)CCCCC(=O)N[C@@H](CCN)C(=O)N[C@H](C(=O)N[C@H](CCN)C(=O)N[C@H]1CCNC(=O)[C@H]([C@@H](C)O)NC(=O)[C@H](CCN)NC(=O)[C@H](CCN)NC(=O)[C@H]([C@@H](C)O)NC(=O)[C@@H](Cc2ccccc2)NC(=O)[C@H](CCN)NC1=O)[C@@H](C)O ({Heptanoyl(6-Me)}-[Dab]T[dDab][Dab][Dab][dF]T[Dab][Dab]T; lactam 4-C) | > 500 | 0.06 (≈ 0.051 µM) | ≤ 0.03 | ≤ 0.03 | ≤ 0.03 | 0.125 (≈ 0.106 µM) | 0.5 (≈ 0.425 µM) | 0.5 (≈ 0.425 µM) | ≤ 0.03 |
| CC(C)CCCCC(=O)N[C@@H](CCN)C(=O)N[C@H](C(=O)N[C@H](CCCN)C(=O)N[C@H]1CCNC(=O)[C@H]([C@@H](C)O)NC(=O)[C@H](CCN)NC(=O)[C@H](CCN)NC(=O)[C@H]([C@@H](C)O)NC(=O)[C@@H](Cc2ccccc2)NC(=O)[C@H](CCN)NC1=O)[C@@H](C)O ({Heptanoyl(6-Me)}-[Dab]T[dOrn][Dab][Dab][dF]T[Dab][Dab]T; lactam 4-C) | > 500 | 0.125 (≈ 0.105 µM) | ≤ 0.03 | ≤ 0.03 | 0.125 (≈ 0.105 µM) | 0.06 (≈ 0.0504 µM) | 1 (≈ 0.839 µM) | 0.25 (≈ 0.21 µM) | 0.06 (≈ 0.0504 µM) |
| CC(C)CCCCC(=O)N[C@@H](CCN)C(=O)N[C@H](C(=O)N[C@H](CO)C(=O)N[C@H]1CCNC(=O)[C@H]([C@@H](C)O)NC(=O)[C@H](CN)NC(=O)[C@H](CCN)NC(=O)[C@H]([C@@H](C)O)NC(=O)[C@@H](Cc2ccccc2)NC(=O)[C@H](CCN)NC1=O)[C@@H](C)O ({Heptanoyl(6-Me)}-[Dab]T[dS][Dab][Dab][dF]T[Dab][Dap]T; lactam 4-C) | > 500 | 0.06 (≈ 0.0522 µM) | ≤ 0.03 | ≤ 0.03 | ≤ 0.03 | 0.06 (≈ 0.0522 µM) | 8 (≈ 6.95 µM) | 8 (≈ 6.95 µM) | ≤ 0.03 |
| CC(C)CCCCC(=O)N[C@@H](CCN)C(=O)N[C@H](C(=O)N[C@H](CO)C(=O)N[C@H]1CCNC(=O)[C@H]([C@@H](C)O)NC(=O)[C@H](CCCN)NC(=O)[C@H](CCN)NC(=O)[C@H]([C@@H](C)O)NC(=O)[C@@H](Cc2ccccc2)NC(=O)[C@H](CCN)NC1=O)[C@@H](C)O ({Heptanoyl(6-Me)}-[Dab]T[dS][Dab][Dab][dF]T[Dab][Orn]T; lactam 4-C) | > 500 | 8 (≈ 6.79 µM) | 0.25 (≈ 0.212 µM) | 0.25 (≈ 0.212 µM) | 0.5 (≈ 0.424 µM) | 1 (≈ 0.849 µM) | > 64 | > 64 | 8 (≈ 6.79 µM) |
| CC(C)CCCCC(=O)N[C@@H](CCN)C(=O)N[C@H](C(=O)N[C@H](CO)C(=O)N[C@H]1CCNC(=O)[C@H]([C@@H](C)O)NC(=O)[C@H](CCN)NC(=O)[C@H](CCCN)NC(=O)[C@H]([C@@H](C)O)NC(=O)[C@@H](Cc2ccccc2)NC(=O)[C@H](CCN)NC1=O)[C@@H](C)O ({Heptanoyl(6-Me)}-[Dab]T[dS][Dab][Dab][dF]T[Orn][Dab]T; lactam 4-C) | > 500 | 0.125 (≈ 0.106 µM) | 0.06 (≈ 0.0509 µM) | 0.125 (≈ 0.106 µM) | 0.125 (≈ 0.106 µM) | 0.25 (≈ 0.212 µM) | 8 (≈ 6.79 µM) | 4 (≈ 3.39 µM) | 0.125 (≈ 0.106 µM) |
| CC(C)CCCCC(=O)N[C@@H](CCN)C(=O)N[C@H](C(=O)N[C@H](CO)C(=O)N[C@H]1CCNC(=O)[C@H]([C@@H](C)O)NC(=O)[C@H](CCN)NC(=O)[C@H](CCN)NC(=O)[C@H]([C@@H](C)O)NC(=O)[C@@H](Cc2ccccc2)NC(=O)[C@H](CN)NC1=O)[C@@H](C)O ({Heptanoyl(6-Me)}-[Dab]T[dS][Dab][Dap][dF]T[Dab][Dab]T; lactam 4-C) | > 500 | 0.25 (≈ 0.217 µM) | 0.06 (≈ 0.0522 µM) | 0.06 (≈ 0.0522 µM) | 0.06 (≈ 0.0522 µM) | 0.25 (≈ 0.217 µM) | 64 (≈ 55.6 µM) | > 64 | 0.25 (≈ 0.217 µM) |
| CC(C)CCCCC(=O)N[C@@H](CCN)C(=O)N[C@H](C(=O)N[C@H](CO)C(=O)N[C@H]1CCNC(=O)[C@H]([C@@H](C)O)NC(=O)[C@H](CCN)NC(=O)[C@H](CCN)NC(=O)[C@H]([C@@H](C)O)NC(=O)[C@@H](Cc2ccccc2)NC(=O)[C@H](CCCN)NC1=O)[C@@H](C)O ({Heptanoyl(6-Me)}-[Dab]T[dS][Dab][Orn][dF]T[Dab][Dab]T; lactam 4-C) | > 500 | > 64 | 4 (≈ 3.39 µM) | 8 (≈ 6.79 µM) | 64 (≈ 54.3 µM) | 8 (≈ 6.79 µM) | > 64 | > 64 | 64 (≈ 54.3 µM) |
| CC(C)CCCCC(=O)N[C@@H](CN)C(=O)N[C@H](C(=O)N[C@H](CO)C(=O)N[C@H]1CCNC(=O)[C@H]([C@@H](C)O)NC(=O)[C@H](CCN)NC(=O)[C@H](CCN)NC(=O)[C@H]([C@@H](C)O)NC(=O)[C@@H](Cc2ccccc2)NC(=O)[C@H](CCN)NC1=O)[C@@H](C)O ({Heptanoyl(6-Me)}-[Dap]T[dS][Dab][Dab][dF]T[Dab][Dab]T; lactam 4-C) | > 500 | 0.25 (≈ 0.217 µM) | ≤ 0.03 | ≤ 0.03 | 0.5 (≈ 0.435 µM) | 0.25 (≈ 0.217 µM) | 4 (≈ 3.48 µM) | 64 (≈ 55.6 µM) | 0.25 (≈ 0.217 µM) |
| CC(C)CCCCC(=O)N[C@@H](CCCN)C(=O)N[C@H](C(=O)N[C@H](CO)C(=O)N[C@H]1CCNC(=O)[C@H]([C@@H](C)O)NC(=O)[C@H](CCN)NC(=O)[C@H](CCN)NC(=O)[C@H]([C@@H](C)O)NC(=O)[C@@H](Cc2ccccc2)NC(=O)[C@H](CCN)NC1=O)[C@@H](C)O ({Heptanoyl(6-Me)}-[Orn]T[dS][Dab][Dab][dF]T[Dab][Dab]T; lactam 4-C) | > 500 | 4 (≈ 3.39 µM) | 0.25 (≈ 0.212 µM) | 0.25 (≈ 0.212 µM) | 0.5 (≈ 0.424 µM) | 0.5 (≈ 0.424 µM) | 64 (≈ 54.3 µM) | > 64 | 4 (≈ 3.39 µM) |
